# Laboratory results reported in paper PMC6801448, “The Antioxidant and Antiproliferative Activities of 1,2,3-Triazolyl-L-Ascorbic Acid Derivatives” (International Journal of Molecular Sciences, 2019).
# “Also recorded” adds a separate entry of the source. Like-named read-outs stand apart in the source and are kept apart here.
# Legend:
# [1] = DPPH radical scavenging assay; type: biochemical
# Outline: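 Compounds at 0.06, 0.12, 0.18, 0.23, 0.25 and 0.28 mM reacted with the stable DPPH• radical. Absorbance at 517 nm was read 5 and 10 min after mixing to follow DPPH reduction, with L-ascorbic acid as the reference.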
# [2] = tested on: A549 (lung adenocarcinoma); assay: MTT proliferation assay, A549; type: cell-based; details: Homo sapiens, 72 h
# Outline: (§1)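 The 72 h proliferation test exposed cells, seeded at 5000 per well a day before, to compound concentrations spanning 0.01 μM to 100 μM. Viability was measured by MTT reduction over 3 h with absorbance at 570 nm, and IC50 values were derived by regression of the concentration–growth curves.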
# [3] = tested on: CFPAC-1 (ductal pancreatic adenocarcinoma); assay: MTT proliferation assay, CFPAC-1; type: cell-based; details: Homo sapiens, 72 h
# Outline: as §1
# [4] = tested on: HCT-116 (colorectal carcinoma); assay: MTT proliferation assay, HCT-116; type: cell-based; details: Homo sapiens, 72 h
# Outline: as §1
# [5] = tested on: HeLa (cervical carcinoma); assay: MTT proliferation assay, HeLa; type: cell-based; details: Homo sapiens, 72 h
# Outline: as §1
# [6] = tested on: HepG2 (hepatocellular carcinoma); assay: MTT proliferation assay, HepG2; type: cell-based; details: Homo sapiens, 72 h
# Outline: as §1
# [7] = tested on: MCF-7 (breast adenocarcinoma); assay: MTT proliferation assay, MCF-7; type: cell-based, Human; details: for IC50: Homo sapiens, MCF7, 72 h, MTT
# Outline: as §1
# [8] = tested on: SW620 (colorectal adenocarcinoma, metastatic); assay: MTT proliferation assay, SW620; type: cell-based; details: Homo sapiens, SW-620, 72 h
# Outline: as §1
# [9] = tested on: HFF-1 (foreskin fibroblasts); assay: MTT proliferation assay, HFF-1; type: cell-based; details: Homo sapiens, 72 h, normal foreskin fibroblasts
# Procedure: Human tumor cell lines HeLa (cervical carcinoma), SW620 (colorectal adenocarcinoma, metastatic), A549 (lung adenocarcinoma), MCF−7 (breast adenocarcinoma), CFPAC-1 (pancreatic adenocarcinoma, metastatic), HCT-116 (colorectal carcinoma), and HepG2 (hepatocellular carcinoma), and normal cell lines HFF-1 (foreskin fibroblasts) and WI-38 (immortalized human lung fibroblast), were from the US American Type Culture Collection (ATCC, Manassas, VA, USA). Cells were cultured in a liquid nutrient medium (Dulbecco’s Modified Eagle Medium, LONZA, Basel, Switzerland) supplemented with 10% fetal bovine serum (FBS, Gibco, Grand Island, NY, USA), 2 mM L-glutamine (GIBCO, Grand Island, NY, USA), 100 μg/mL penicillin, and 100 μg/mL streptomycin (LONZA, Basel, Switzerland), in an incubator (NÜVE, Ankara, Turkey), at a humid atmosphere with 5% CO2 at 37 °C. Trypsin/EDTA Solution (Lonza, Basel, Switzerland), was used for cell passaging and cell detachment.
# Adherent cells were seeded on 96 well microtiter plates (Falcon, New York, NY, USA) at a seeding density of 5000 cells per well, added in 150 μL of cell suspension in a nutrient medium. 24 h after seeding, cells were treated with compound 4b–4g, 4i, 4k–4t, 4v, 7c–7g, and 7i–7q dilutions in the range of 0.01 μM to 100 μM. L-ascoric acid (Sigma Aldrich, Darmstadt, Germany) and Carboxyamidotriazole (Sigma Aldrich, Darmstadt, Germany) were used as control compounds. Incubation of the cells with the compounds were performed for 72 h in a 5% CO2, in humid atmosphere at 37 °C. After incubation, nutrient medium was removed and 40 μL of the MTT reagent ([…]-2,5-diphenyltetrazole bromide (Invitrogen, Carlsbad, CA, USA) was added to each well. 3 h after incubation, 160 μL of DMSO (VWR CHEMICALS, Radnor, PA, USA) were added to each well to dissolve the crystals of purple formazane. The absorbance was measured at 570 nm (TECAN SUNRISE Microtiter plate reader (Männedorf, Switzerland). The experimentally measured optical densities (OD) were converted to the PG (percentage of growth), using the formulas according to the protocol assumed by NIH (National Institute of Health). The IC50 values (concentration causing 50% cell growth inhibition) for each compound were calculated by regression analysis of the survival count curve of the concentrations of the tested compounds. The results were processed in Excel 2010 (Microsoft, Redmond, WA, USA).
# HFF-1 cells = assay: Seahorse XF Cell Mito Stress Test, HFF-1; type: cell-based, Human; details: HFF-1, 24 h
# Procedure: The Seahorse XF Cell Mito Stress Test was used for measurements of mitochondrial respiration by direct assessment of the oxygen consumption rate (OCR), of treated and untreated cells on the Seahorse XFe24 Analyzer, (Agilent, Santa Clara, CA, USA). Key parameters of the mitochondrial function were measured by direct assessment of the OCR, by use of the Mito Stress Test (Agilent, Agilent, Santa Clara, CA, USA). The Mito Stress Test uses modulators of respiration that target components of the electron transport chain in the mitochondria. The compounds added to the reaction were: oligomycin, mitochondrial oxidative phosphorylation uncoupler carbonyl cyanide-4-(trifluoromethoxy)phenylhydrazone (FCCP), and the mix of rotenone and antymicin A. These were directly injected to the cell growth medium containing cells treated with selected L-ASA derivatives to determine the production of ATP, respiration at maximal level, and the non-mitochondrial respiration. Measured parameters were used for calculation of the proton leakage, spare respiratory capacity, and basal respiration. The assay was performed according to the manufacturer’s instructions (SeaHorse—Mito Stress Test: Agilent, Santa Clara, CA, USA). Briefly, selected compound 4e was tested due to its selective antiproliferative effect on MCF-7 cells. MCF-7 cells were treated for 24 h with compound 4e at 3 different concentrations (at 12.72 µM, 25.44 µM and 50.88 µM) while the cells HFF-1 were treated for 24 h with compound 4e at concentrations 50 µM, 100 µM, and 200 µM. […] The experiment was performed with biological duplicates.
# [10] = 5 min treatment, read-out: IC50 of DPPH• inhibition, Treatm. 5 min
# [11] = 10 min treatment, read-out: IC50 of DPPH• inhibition, Treatm. 10 min
compound,measurement,setting,value
"O=C1O[C@H]([C@@H](O)CO)C(O)=C1O [L-ASA, L-ascorbic acid]",IC50,[1]; [10],180 ± 60 µM
same,IC50,[1]; [11],170 ± 50 µM
same,pIC50 (negative logarithm of DPPH• IC50),[1]; calculated from IC50 values of Table 1,3.75
same,IC50,[2],> 100 µM
same,IC50,[3],> 100 µM
same,IC50,[4],> 100 µM
same,IC50,[5],> 100 µM
same,IC50,[6],> 100 µM
same,IC50,[7],> 100 µM
same,IC50,[8],> 100 µM
same,IC50,[9],> 100 µM
same,"decrease of basal cell respiration and ATP production, switch towards non-mitochondrial respiration",HFF-1 cells; higher concentrations,this effect was not observed
"O=C1O[C@H]([C@@H](O)Cn2cc(-c3ccc(Br)cc3)nn2)C(O)=C1O [Compound 4e, 6-[4-(4-bromophenyl)-1,2,3-triazol-1-yl]-6-deoxy-L-ascorbic acid]",IC50,[1]; [10],200 ± 10 µM
same,IC50,[1]; [11],190 ± 10 µM
same,IC50,[2],25.4 µM
same,IC50,[3],> 100 µM
same,IC50,[4],> 100 µM
same,IC50,[5],> 100 µM
same,IC50,[6],> 100 µM
same,IC50,[7],6.72 µM
same,"selectivity index, SI",[7]; WI-38 versus MCF-7,11
same,IC50,[8],> 100 µM
same,IC50,[9],> 100 µM
same,basal cell respiration and ATP production,HFF-1 cells,did not affect the basal cell respiration or ATP production; also recorded: did not affect the basal cell respiration and ATP production
same,cellular metabolism and mitochondrial activity,HFF-1 cells; 100 µM,slightly positive effect
